Test results published in patent US8343475B2, “Small cationic antimicrobial peptides” (priority 2006, dated 2013).
In brackets after ≈: the same amount, converted by molar mass. Residues, ends and D or L forms follow the SMILES beside them. No end group written: not given here.

Experiments:
Type in all cases: cell-based
[1] = system: Pseudomonas aeruginosa strain H1001 fliC::luxCDABE; experiment: Luminescence (lux) killing assay, peptides cleaved from cellulose support; parameters: key: − for minimal or no activity; + for weak activity; +/++ for intermediate activity; ++ strong activity; details: P. aeruginosa strain H1001, 4 hours incubation, luminescence as indicator
Description: Assay for the cleaved peptides from cellulose support. The peptides were cleaved from the dried membrane in an ammonia atmosphere overnight, resulting in free peptides with an amidated C-terminus. The free peptides contained two β-alanines at the C-terminus, in addition to being amidated due to the linker between the cellulose membrane and the peptide sequence. The peptide spots were punched out and transferred in a 96-well microtiter plate. Serial dilutions were carried out from the membrane spots. Four rows were filled with four controls including 2×Bac2A and 2× an unrelated peptide. The other eight rows were used for serial dilution steps of the peptide variants. An overnight culture of Pseudomonas aeruginosa strain H1001 was diluted 1:500 using either LB media or 100 mM Tris buffer pH 7.3, 20 mM glucose and was added to the wells (100 μl/well) containing the peptide spots. In all other wells 50 μl were added. The microtiter plate was incubated for 30 min at 37° C. to release the peptides from the membrane. Subsequently, a dilution series were performed and the plate was incubated at 37° C. The luminescence produced by the FMN dependent luciferase system were detected in a time dependent manner using a Tecan Spectra Fluor plus.
(§1) Strains. For the killing assay a mini-Tn5-lux mutant in Pseudomonas aeruginosa H103 was used. The strain is called H1001 and contains a fliC::luxCDABE transcriptional fusion resulting in constitutive expression of luciferase. The bacterial strains used for the antimicrobial activity assays included Escherichia coli UB1005 (F-, nalA37, metB1), a wild-type Salmonella enterica ssp. typhimurium (S. typhimurium), wild-type Pseudomonas aeruginosa PAO1 strain H103, Enterococcus faecalis ATCC29212, Staphylococcus aureus ATCC25923, and a clinical isolate of Staphylococcus epidermidis obtained from Dr. D. Speert (Department of Medicine, University of British Columbia). Antifungal activity was tested using a lab isolate of Candida albicans obtained from Dr. B. Dill (Department of Microbiology and Immunology, University of British Columbia).
Peptide synthesis on cellulose is a very effective and inexpensive way to investigate many different peptide variants for one particular activity. However, one of the problems of this technique is the low peptide amount synthesized on the membrane, about 280 nmol per cm^2. An average peptide spot used for the experiments presented is about 0.3 cm^2. Therefore, an assay had to be developed that was sensitive enough to show activity with this amount of peptides. P. aeruginosa H1001 has a luciferase gene cassette incorporated into the bacterial chromosome in a gene fliC (involved in flagellar biosynthesis) that is constitutively expressed. It will thus produce light if FMN is present. When this strain is killed, e.g. by peptides, the amount of light produced will decrease due to a decrease in FMN levels in the killed cells. This action can thus be monitored by detecting luminescence in a microtiter plate luminescence reader over time. The volume and amount of cells per well were optimized for this assay. After screening, we were able to monitor the killing action with small amounts of the parent peptide Bac2A (2 μg/ml of free peptide).

[2] = system: Pseudomonas aeruginosa PAO1 strain H103; details: for MIC: PAO1; for antimicrobial activity against P. aeruginosa PAO1 (in words): laboratory strain P. aeruginosa PAO1
Description: The biological activity of the peptides can be determined by standard methods known to those of skill in the art, such as “minimal inhibitory concentration (MIC)” assay described in the present examples, whereby the lowest concentration at which no change in OD is observed for a given period of time is recorded as MIC.
Minimal inhibitory concentration (MIC) determination. The MIC of the peptides were measured using a modified broth microdilution method in Mueller Hinton (MH) medium (Wu M, Hancock R E W. 1999. Interaction of the cyclic antimicrobial cationic peptide bactenecin with the outer and cytoplasmic membrane. J Biol Chem 274, 29-35). Briefly, the peptides were dissolved and stored in glass vials. The assay was performed in sterile 96-well polypropylene microtitre plates were used. Serial dilutions of the peptides to be assayed were performed in 0.01% acetic acid (Fisher) containing 0.2% bovine serum albumin (Boehringer Mannheim GmbH) at 10× the desired final concentration. Ten microlitres of the 10× peptides were added to each well of a 96-well polypropylene plate containing 90 μl of MH media per well. Bacteria were added to the plate from an overnight culture at 2-7×10^5 colony forming units/ml and incubated over night at 37° C. The MIC was taken as the concentration at which no growth was observed.
as §1

[3] = system: MCP-1 release by human PBMC; experiment: Chemokine induction in PBMC (capture ELISA); details: background (204) subtracted
Description: FIG. 15. Induction of MCP-1 release by 7.5×10^5 human PBMC in response to treatment with 20 or 100 μg/ml of different peptides for 24 hours.
(§2) Venous blood (20 ml) from healthy volunteers was collected in Vacutainer® collection tubes containing sodium heparin as an anticoagulant (Becton Dickinson, Mississauga, ON) in accordance with UBC ethical approval and guidelines. Blood was diluted 1:1 with complete RPMI 1640 medium and separated by centrifugation over a Ficoll-Paque® Plus (Amersham Biosciences, Piscataway, N.J., USA) density gradient. White blood cells were isolated from the buffy coat, washed twice in RPMI 1640 complete medium, and the number of peripheral blood mononuclear cells (PBMC) was determined by trypan blue exclusion. PBMC (5×10^5) were seeded into 12-well tissue culture dishes (Falcon; Becton Dickinson) at 0.75 to 1×10^6 cells/ml at 37° C. in 5% CO2. The above conditions were chosen to mimic conditions for circulating blood monocytes entering tissues at the site of infection via extravasation.
(§3) Following incubation of the cells under various treatment regimens, the tissue culture supernatants were centrifuged at 1000×g for 5 min, then at 10,000×g for 2 min to obtain cell-free samples. Supernatants were aliquoted and then stored at −20° C. prior to assay for various chemokines by capture ELISA (eBioscience and BioSource International Inc., CA, USA respectively)

[4] = system: MCP-3 release by human PBMC; experiment: Chemokine induction in PBMC (capture ELISA); details: background (6) subtracted
Description: FIG. 16. Induction of MCP3 release by 7.5×10^5 human PBMC in response to treatment with 20 or 100 μg/ml of different peptides for 24 hours.
as §2, §3

[5] = system: CXCL1 (Gro-α) release by human PBMC; experiment: Chemokine induction in PBMC (capture ELISA); details: background (196) subtracted
Description: FIG. 17. Induction of CXCL1 (Gro-α) release by 7.5×10^5 human PBMC in response to treatment with 20 or 100 μg/ml of different peptides for 24 hours.
as §2, §3

KWRWWPWRR [HH978]
Antimicrobial activity [1]: ++

RFFKFRR [HH1007]
Antimicrobial activity [1]: −

PWWPWRK [HH1001]
Antimicrobial activity [1]: −

RWWPWRR [HH996]
Antimicrobial activity [1]: +

KFRWWPWRR [HH984]
Antimicrobial activity [1]: ++

KWWPWRR [HH994]
Antimicrobial activity [1]: +

KFKFFKYRK [HH991]
Antimicrobial activity [1]: +

KWWKWKK [HH1008]
Antimicrobial activity [1]: +

RFWKWRR [HH1004]
Antimicrobial activity [1]: +

RWWKWRR [HH1002]
Antimicrobial activity [1]: ++

PWWPWRR [HH993]
Antimicrobial activity [1]: +

CC(C)C[C@H](NC(=O)CNC(=O)[C@H](CCCCN)NC(=O)[C@H](CC(N)=O)NC(=O)[C@H](CCCNC(=N)N)NC(=O)[C@@H](N)CCC(N)=O)C(=O)N[C@@H](CCCNC(=N)N)C(=O)N[C@@H](Cc1c[nH]cn1)C(=O)N[C@@H](Cc1c[nH]cn1)C(N)=O [HHC186, QRNKGLRHH] (H-QRNKGLRHH-NH2; N-terminus assumed)
MIC [2]: 381 µM (≈ 436 µg/mL)
antimicrobial activity against P. aeruginosa PAO1 (in words) [2]: did not posses any antimicrobial activity

KWPKWPWRR [HH979]
Antimicrobial activity [1]: +

KFKWWKYRK [HH990]
Antimicrobial activity [1]: ++

PKWPWRR [HH997]
Antimicrobial activity [1]: −

KFHWWKWRK [HH989]
Antimicrobial activity [1]: ++

KWPWKPWRR [HH980]
Antimicrobial activity [1]: +

CC(C)[C@H](NC(=O)CNC(=O)[C@@H](NC(=O)[C@H](CCCNC(=N)N)NC(=O)[C@H](CCCCN)NC(=O)[C@H](CO)NC(=O)[C@H](C)N)C(C)C)C(=O)N[C@@H](CCCNC(=N)N)C(=O)N[C@@H](CC(N)=O)C(N)=O [HHC190, ASKRVGVRN] (H-ASKRVGVRN-NH2; N-terminus assumed)
MIC [2]: 413 µM (≈ 407 µg/mL)
antimicrobial activity against P. aeruginosa PAO1 (in words) [2]: did not posses any antimicrobial activity

CC[C@H](C)[C@H](NC(=O)[C@H](CCC(N)=O)NC(=O)[C@H](CCCNC(=N)N)NC(=O)[C@H](CCCNC(=N)N)NC(=O)CNC(=O)[C@@H](N)CCCNC(=N)N)C(=O)NCC(=O)N[C@@H](CCCCN)C(=O)N[C@@H](Cc1ccccc1)C(N)=O [HHC189, RGRRQIGKF] (H-RGRRQIGKF-NH2; N-terminus assumed)
MIC [2]: 379 µM (≈ 423 µg/mL)
antimicrobial activity against P. aeruginosa PAO1 (in words) [2]: did not posses any antimicrobial activity

KFKFFKFRK [HH992]
Antimicrobial activity [1]: +

KWRWWKKRR [HH986]
Antimicrobial activity [1]: ++

KWPWWPWRK [HH975]
Antimicrobial activity [1]: +

RWWIKRR [HH1005]
Antimicrobial activity [1]: +/++

KKKWWKWRR [HH987]
Antimicrobial activity [1]: ++

KFRWWKWRR [HH985]
Antimicrobial activity [1]: ++

KWPWWKWRR [HH981]
Antimicrobial activity [1]: ++

RWWIYRR [HH1006]
Antimicrobial activity [1]: +

KWPWWPWRR [HH983]
Antimicrobial activity [1]: +/++

PWWKWRR [HH995]
Antimicrobial activity [1]: +/++

PWWPKRR [HH1000]
Antimicrobial activity [1]: −

PWWKWRR [HH999]
Antimicrobial activity [1]: +

PWKPWRR [HH998]
Antimicrobial activity [1]: −

KKPWWPWRR [HH977]
Antimicrobial activity [1]: +

1044 (RRWIVWI) [compound 1044]
Chemokine induction MCP-1 ([3]; 20 μg/ml peptide): 1561 pg/mL
Chemokine induction MCP-1 ([3]; 100 μg/ml peptide): 5024 pg/mL
Chemokine induction MCP-3 ([4]; 20 μg/ml peptide): 115 pg/mL
Chemokine induction MCP-3 ([4]; 100 μg/ml peptide): 261 pg/mL
Chemokine induction Gro-α ([5]; 20 μg/ml peptide): 1963 pg/mL
Chemokine induction Gro-α ([5]; 100 μg/ml peptide): 1545 pg/mL

VIWIRWR (VIWIRWR-NH2) [compound 1041]
Chemokine induction MCP-1 ([3]; 20 μg/ml peptide): 146 pg/mL
Chemokine induction MCP-1 ([3]; 100 μg/ml peptide): 1218 pg/mL
Chemokine induction MCP-3 ([4]; 20 μg/ml peptide): 7 pg/mL
Chemokine induction MCP-3 ([4]; 100 μg/ml peptide): 53 pg/mL
Chemokine induction Gro-α ([5]; 20 μg/ml peptide): 110 pg/mL
Chemokine induction Gro-α ([5]; 100 μg/ml peptide): 450 pg/mL

KFHWWIWRK [HH988]
Antimicrobial activity [1]: ++

KFFKFKK [HH1009]
Antimicrobial activity [1]: −

1034 (KQFRNRLRIVKK) [compound 1034]
Chemokine induction MCP-1 ([3]; 20 μg/ml peptide): 434 pg/mL
Chemokine induction MCP-1 ([3]; 100 μg/ml peptide): 796 pg/mL
Chemokine induction MCP-3 ([4]; 20 μg/ml peptide): 0 pg/mL
Chemokine induction MCP-3 ([4]; 100 μg/ml peptide): 4 pg/mL
Chemokine induction Gro-α ([5]; 20 μg/ml peptide): 60 pg/mL
Chemokine induction Gro-α ([5]; 100 μg/ml peptide): 61 pg/mL

KFPWWPWRR [HH976]
Antimicrobial activity [1]: +

KWPWWPKRR [HH982]
Antimicrobial activity [1]: +

1048 (IRWVIRW) [compound 1048]
Chemokine induction MCP-1 ([3]; 20 μg/ml peptide): 96 pg/mL
Chemokine induction MCP-1 ([3]; 100 μg/ml peptide): 38 pg/mL
Chemokine induction MCP-3 ([4]; 20 μg/ml peptide): 0 pg/mL
Chemokine induction MCP-3 ([4]; 100 μg/ml peptide): 0 pg/mL
Chemokine induction Gro-α ([5]; 20 μg/ml peptide): 7 pg/mL
Chemokine induction Gro-α ([5]; 100 μg/ml peptide): -11 pg/mL

FRIRVRVIR (FRIRVRVIR-NH2) [compound 1030]
Chemokine induction MCP-1 ([3]; 20 μg/ml peptide): 139 pg/mL
Chemokine induction MCP-1 ([3]; 100 μg/ml peptide): 2075 pg/mL
Chemokine induction MCP-3 ([4]; 20 μg/ml peptide): 1 pg/mL
Chemokine induction MCP-3 ([4]; 100 μg/ml peptide): 35 pg/mL
Chemokine induction Gro-α ([5]; 20 μg/ml peptide): 10 pg/mL
Chemokine induction Gro-α ([5]; 100 μg/ml peptide): 674 pg/mL

CSCC[C@H](NC(=O)CNC(=O)[C@H](Cc1c[nH]c2ccccc12)NC(=O)[C@H](CCCNC(=N)N)NC(=O)[C@H](CCCNC(=N)N)NC(=O)CN)C(=O)NCC(=O)N[C@H](C(=O)N[C@@H](CCCNC(=N)N)C(N)=O)C(C)C [HHC183, GRRWGMGVR] (H-GRRWGMGVR-NH2; N-terminus assumed)
MIC [2]: 360 µM (≈ 386 µg/mL)
antimicrobial activity against P. aeruginosa PAO1 (in words) [2]: did not posses any antimicrobial activity

RWWKWRK [HH1003]
Antimicrobial activity [1]: +/++

CSCC[C@H](NC(=O)[C@H](CCCNC(=N)N)NC(=O)[C@H](Cc1c[nH]cn1)NC(=O)[C@H](CCCNC(=N)N)NC(=O)[C@H](CO)NC(=O)CNC(=O)[C@H](CCCNC(=N)N)NC(=O)[C@H](Cc1ccccc1)NC(=O)[C@H](C)N)C(N)=O [HHC152, AFRGSRHRM] (H-AFRGSRHRM-NH2; N-terminus assumed)
MIC [2]: 506 µM (≈ 565 µg/mL)
antimicrobial activity against P. aeruginosa PAO1 (in words) [2]: did not posses any antimicrobial activity
